Test results reported in patent publication US4048202A (priority 1975, dated 1977).
≈ marks a conversion by molar mass, not a printed value. Like-named read-outs stand apart in the source and are kept apart here.

Tests used:
Test in all cases: microbe, parasite or virus in culture
[1] = test system: C.perfingens (ATCC 1620-19); type: cell-based, Clostridium perfingens; conditions: Clostridium, read-out: Minimum Inhibitory Concentrations
[2] = test system: B.subtilis; type: cell-based; conditions: Bacillus subtilis, read-out: Minimum Inhibitory Concentrations
[3] = test system: C. paraputrificum (ATCC 1620-23); type: cell-based; conditions: Clostridium paraputrificum, read-out: Minimum Inhibitory Concentrations
[4] = test system: C.botulinum (ATCC 19397); type: cell-based; conditions: Clostridium botulinum
[5] = test system: C.perfingens (ATCC 13124); type: cell-based, Clostridium perfingens; conditions: Clostridium, read-out: Minimum Inhibitory Concentrations
[6] = ATCC19397, pH 5, read-out: Minimum Inhibitory Concentrations
[7] = ATCC19397, pH 7, read-out: Minimum Inhibitory Concentrations

Row | Structure (SMILES) | MIC ([1]; ATCC1620, pH 5) [µg/mL] | MIC ([1]; ATCC1620, pH 7) [µg/mL] | MIC ([2]; pH 5) [µg/mL] | MIC ([2]; pH 7) [µg/mL] | MIC ([3]; ATCC1620, pH 5) [µg/mL] | MIC ([3]; ATCC1620, pH 7) [µg/mL] | MIC [4, 6] [µg/mL] | MIC [4, 7] [µg/mL] | MIC ([5]; ATCC13124, pH 5) [µg/mL] | MIC ([5]; ATCC13124, pH 7) [µg/mL]
1 | CCCCCC(=O)OCC(O)C(=O)O (stereo not shown) [R=5, 3-O-hexanoylglyceric acid] | 10 (≈ 49 µM) | 1000 (≈ 4900 µM) | 10 (≈ 49 µM) | 10000 (≈ 49000 µM) | 10 (≈ 49 µM) | 1000 (≈ 4900 µM) | 10 (≈ 49 µM) | 100 (≈ 490 µM) | 100 (≈ 490 µM) | 1000 (≈ 4900 µM)
2 | CCCCCCCCCC(=O)OCC(O)C(=O)O (stereo not shown) [R=9, 3-O-decanoylglyceric acid] | 10 (≈ 38.4 µM) | 100 (≈ 384 µM) | 10 (≈ 38.4 µM) | 1000 (≈ 3840 µM) | 10 (≈ 38.4 µM) | 100 (≈ 384 µM) | 10 (≈ 38.4 µM) | 10 (≈ 38.4 µM) | 10 (≈ 38.4 µM) | 10 (≈ 38.4 µM)
3 | CCCCCCCCCCCCC(=O)OCC(O)C(=O)O (stereo not shown) [R=12, 3-O-tridecanoylglyceric acid] | 10 (≈ 33.1 µM) | 10 (≈ 33.1 µM) | 10 (≈ 33.1 µM) | 1000 (≈ 3310 µM) | 10 (≈ 33.1 µM) | 100 (≈ 331 µM) | 10 (≈ 33.1 µM) | 100 (≈ 331 µM) | 10 (≈ 33.1 µM) | 100 (≈ 331 µM)
4 | CCCCCCCCCCCCCCCC(=O)OCC(O)C(=O)O (stereo not shown) [R=15, 3-O-hexadecanoylglyceric acid] | 100 (≈ 290 µM) | 100 (≈ 290 µM) | > 10000 | 10000 (≈ 29000 µM) | 10 (≈ 29 µM) | 1000 (≈ 2900 µM) | 100 (≈ 290 µM) | 1000 (≈ 2900 µM) | 10 (≈ 29 µM) | 1000 (≈ 2900 µM)
